The record followed here is patent publication US20120288456A1, “NOVEL COMPOUND” (priority 2009, published 2012).

SMILES strings stand for the structures.

The nature of data set [1]: Comparative solubility of BMDBM in 1:1 mixture of C12-15 alkyl benzoate and a polymeric or solid UV-filter.
From the text: Where necessary the mixture was centrifuged in order to obtain a clear supernatant.
A short description of data set [2]: Solubility of BMDBM and BEMT in cosmetic solvent with and without PG-UVB (saturation, HPLC of supernatant; storage test). Particulars: 200 mg BEMT in 800 mg diethylhexyl adipate/PG-UVB1 1:1, 1 month at RT.

Consider `CCCCC(CC)COc1ccc(-c2nc(-c3ccc(OC)cc3)nc(-c3ccc(OCC(CC)CCCC)cc3O)n2)c(O)c1` (stereo not shown) [BEMT, bis-ethylhexyloxyphenol methoxyphenyl triazine], for which the “Δ solubility of BMDBM related to cosmetic solvent” value in data set [1] (C12-15 alkyl benzoate/UV-filter 1:1, label = UV-filter) is listed as −4 wt.-%. Moreover, the “Δ solubility of BMDBM” value in data set [1] (C12-15 alkyl benzoate/UV-filter 1:1 versus C12-15 alkyl benzoate, label = UV-filter) is reported as −11 wt.-%. Besides, in data set [1] (label = UV-filter in 1:1 mixture, 200 mg BMDBM in 1000 mg mixture, 1 month at RT, HPLC of supernatant), the “Solubility of BMDBM in C12-15 alkyl benzoate/UV-filter 1:1” value stood at 3 wt.-%. Besides, in data set [2], the re-crystallization on storage entry is “no re-crystallization occurred”.
